Counter-ions that a name gives are not always drawn.
Assays:
cpA neurons [1] = assay: extracellular single-sensillum electrophysiology: activation of cpA neuronal activity; conditions: for Class: Table 6, single compounds, increase over baseline cpA neuronal activity; for Comp B Class / Comp A Class: Table 9; for Comp B Class: component B tested individually; for Class B (activator class of the individual component): Table 15, single component alone, Mod Actv; for Comp A Class: component A tested individually
female mosquitoes [2] = conditions: single compound, female mosquitoes, two hours; for % mortality with 0.2 mg/ml: 0.2 mg/ml on filter paper; for % mortality with 2 mg/ml: 2 mg/ml on filter paper
larvae = assay: larvicidal activity assay; assay type: in vivo; conditions: 24 hour exposure, dead larvae / total larvae; for % Lethality at 100 ppm / pest or weed control at 100 ppm: 100 ppm compound; for % Lethality with 0.25% compound conc. / pest or weed control at 0.25 %: 0.25% compound; for pest or weed control at 0.25 %: read-out: % Lethality with 0.25% compound conc.; for pest or weed control at 100 ppm: read-out: % Lethality at 100 ppm
Description: A 6-well plate (Corning Life Sciences, Tewksbury, Mass.) is used to test a compound's larvicidal activity. […] After a 24 hour exposure, the number of dead larvae are counted and recorded.
The results are presented in Table 17 as % lethality (the number of dead larvae divided by the total number of larvae).

[3] = system: bed bugs (Cimex lectularius); assay: bed bug repellency assay; assay type: in vivo; conditions: for % Rep (bed bug repellency): compound or combination on filter paper harborage, ten bed bugs
Description: Compounds and combinations of compounds of the present invention were assayed for their ability to repel bed bugs (Cimex lectularius) using a bed bug repellency assay. This assay takes advantage of the bed bug's natural tendency to seek harborage. Two petri dishes were obtained and the inner areas of each were sanded down (leaving the perimeter smooth.) Talc was applied on the perimeter and on the inside walls of the petri dishes with a small paint brush to prevent bed bugs from escaping. A cut off top portion of a solo bathroom cup was placed upside down in the center of one petri dish. A large plastic secondary container was gathered and a paper towel was laid down inside the bottom. The petri dish was then placed inside and ten bed bugs were placed inside the cut off portion of the solo cup. Next, two pieces of filter paper were cut down the middle to yield 4 equally sized halves. 3 pieces were placed inside a glass dish ([…]) and the remaining piece was placed in a separate dish. All 4 pieces were folded down the middle to create a “tent” or “harborage” when laid such that the folded crease faced up. 100 microliters of isopropyl alcohol was pipetted into 3 pieces of filter paper (all housed in the first glass dish.) In a separate 4 ml vial, 90 microliters of isopropyl alcohol was combined and vortexed with 10 microliters of the compound or compound combination being tested. 100 microliters of this solution [comprising a total of 100 mg of compound(s)] was pipetted onto the filter paper in the separate dish. All filter papers were then allowed to dry. Once dry, experiments were conducted first with two filter paper halves comprising only the isopropyl alcohol (control experiment) and then with the remaining filter paper halves [one with only isopropyl alcohol and one comprising the test compound(s).] Filter paper halves were placed on opposing sides of experimental petri dishes and bed bugs were allowed to move freely within the dishes for 5 minutes. Movement of bed bugs beneath each filter paper tent was recorded. […] In the Table, “Rep” refers to repellency and “Cmpd” refers to compound.

female mosquitoes [4] = assay: whole plant or invertebrate; conditions: 2 h; for mortality at 200 µg/mL: read-out: % mortality with 0.2 mg/ml; for mortality at 2000 µg/mL: read-out: % mortality with 2 mg/ml
cpA neurons [5] = assay: extracellular single-sensillum electrophysiology: inhibition of CO2-responsive (cpA) neuronal activity; conditions: for Class: Table 10, single compounds, percent reduction in cpA activity compared to baseline; for Class (inhibitor class of the individual component): Inh = inhibitor
cpB and cpC neurons = assay: extracellular single-sensillum electrophysiology: beta activators; assay type: in vivo, Aedes aegypti; conditions: for Class (beta activator, individual component) / Class A (beta activator, individual component): Beta Actv; for beta activator (stimulates cpB and cpC neuronal activity): single compound; for Class A (beta activator, individual component): Table 15, single component alone
Source text: Three types of CO2-responsive neurons reside in the maxillary palp of mosquitoes. These include cpA, cpB and cpC neurons. […] These neurons produce spikes with much lower amplitude than those produced by cpA neurons. Although the activity from cpB and cpC neurons cannot easily be distinguished from one another, their collective activity can be distinguished from cpA neurons due to their characteristic spikes. This is useful in the identification of compounds and compositions that only activate or inhibit cpB and cpC neurons or compounds and compositions that activate or inhibit both.
Carbon dioxide receptor neurons are housed within the basiconic sensilla of the mosquito maxillary palp. While activity from cpA neurons produces the largest amplitude spike, cpB and cpC neurons present in this region are also responsive to skin odors. Activity from these neurons can also be detected through the electrophysiological methods described in Example 1.
Although the activity from cpB and cpC neurons cannot easily be distinguished from one another, their collective activity can be distinguished from cpA neurons due to their production of spikes with much lower amplitude than those produced by cpA neurons.

[6] = Table 13, single component alone
[7] = Table 16, single component alone

| Compound | Class (cpA neurons [1]) | % mortality with 0.2 mg/ml (female mosquitoes [2]) | % mortality with 2 mg/ml (female mosquitoes [2]) | % Lethality with 0.25% compound conc. (larvae) | % Lethality at 100 ppm (larvae) | % Rep (bed bug repellency) [3] | pest or weed control at 0.25 % (larvae) | pest or weed control at 100 ppm (larvae) | mortality at 200 µg/mL (female mosquitoes [4]) | mortality at 2000 µg/mL (female mosquitoes [4]) | Class (cpA neurons [5]) | other results |
| --- | --- | --- | --- | --- | --- | --- | --- | --- | --- | --- | --- | --- |
| 2-ethyl-5(6)-methylpyrazine [OLI0032] | Mild Activator (mild activators yield an increase in neuronal activity that is between 20 and 40 spk/sec over baseline neuronal activity) | 0% | 0% | – | – | – | – | – | – | – | – | – |
| C/C=C(\C)C=O [OLI0013, trans-2-methyl-2-butenal] | Strong Activator (strong activators yield an increase in activity that is >60 spk/sec over baseline neuronal activity) | 0% | 0% | 72% lethal | 0% lethal | – | – | – | – | – | – | – |
| N#C/C=C/c1ccccc1 [OLI0020, cinnamyl nitrile] | Moderate Activator (Moderate activators yield an increase in neuronal activity that is between 40 and 60 spk/sec over baseline neuronal activity) | 0% | 100% | 100% lethal | 100% lethal | 56% | – | – | – | – | – | Comp B Class (cpA neurons [1]): Mod; Class B (activator class of the individual component) (cpA neurons [1]): Mod |
| CCCC1CCC(=O)O1 (stereo not drawn) [OLI0024, gamma-heptalactone] | Moderate Activator (Moderate activators yield an increase in neuronal activity that is between 40 and 60 spk/sec over baseline neuronal activity) | 0% | 0% | 100% lethal | 0% lethal | 71% | – | – | – | – | – | Comp A Class (cpA neurons [1]): Mod; Comp B Class (cpA neurons [1]): Mod; Class B (activator class of the individual component) (cpA neurons [1]): Mod |
| O=CCCc1ccccc1 [OLI0029, phenylpropylaldehyde] | Moderate Activator (Moderate activators yield an increase in neuronal activity that is between 40 and 60 spk/sec over baseline neuronal activity) | 0% | 15% | 100% lethal | 0% lethal | 100% | – | – | – | – | – | Comp A Class (cpA neurons [1]): Mod; Comp B Class (cpA neurons [1]): Mod; Class B (activator class of the individual component) (cpA neurons [1]): Mod |
| CC(=O)/C=C/C=C(C)C [OLI0059] | Mild Activator (mild activators yield an increase in neuronal activity that is between 20 and 40 spk/sec over baseline neuronal activity) | 0% | 0% | 100% lethal | 58% lethal | 87% | – | – | – | – | – | – |
| CCCCC(=O)OCc1ccco1 [OLI0074, furfurylpentanoate] | – | – | – | – | – | 100% | 100% | 0% | 0% | 0% | Moderate Inhibitor (moderate inhibitors (reducing activity by 40-60%)) | Class (inhibitor class of the individual component) (cpA neurons [5]; [6]): Mod; Class (inhibitor class of the individual component) (cpA neurons [5]; [7]): Mod; Class (beta activator, individual component) (cpB and cpC neurons; [7]): Beta; beta activator (stimulates cpB and cpC neuronal activity) (cpB and cpC neurons): beta activator |
| CCCCCC(=O)CC [OLI0075, octanone-3] | – | 0% | 0% | 100% lethal | 50% lethal | – | – | – | – | – | Moderate Inhibitor (moderate inhibitors (reducing activity by 40-60%)) | Class (inhibitor class of the individual component) (cpA neurons [5]; [6]): Mod |
| C/C=C(\C)C(=O)OC(CC)CCCCC (stereo not drawn) [OLI0079, 1-ethylhexyl tiglate] | – | – | – | – | – | 49% | 100% | 0% | 0% | 15% | Mild Inhibitor (mild inhibitors (reducing activity by 20-40%)) | inhibitor class of single compound (cpA neurons [5]; single compound): mild cpA inhibitors; beta activator (stimulates cpB and cpC neuronal activity) (cpB and cpC neurons): beta activators |
| CCCCCCC(=O)OC [OLI0091, methyl heptanoate] | – | – | – | – | – | 20% | 72% | 0% | 0% | 0% | Mild Inhibitor (mild inhibitors (reducing activity by 20-40%)) | Comp A Class (cpA neurons [1]): Mild Inh (mild inhibitors (reducing activity by 20-40%)) |
| CCCCCC(C)=O [OLI0092, methylamylketone] | – | – | – | – | – | 8% | 73% | 32% | 0% | 0% | Mild Inhibitor (mild inhibitors (reducing activity by 20-40%)) | Comp B Class (cpA neurons [1]): Mild Inh (mild inhibitors (reducing activity by 20-40%)) |
| CC/C=C\CCOC=O [OLI0096, cis-3-hexenyl formate] | – | – | – | – | – | 6% | 30% | 0% | 0% | 0% | – | Class A (beta activator, individual component) (cpB and cpC neurons): Beta; beta activator (stimulates cpB and cpC neuronal activity) (cpB and cpC neurons): beta activators |
| CC(C)CCOC=O [OLI0098, isoamyl formate] | – | – | – | – | – | – | – | – | – | – | – | Class A (beta activator, individual component) (cpB and cpC neurons): Beta; beta activator (stimulates cpB and cpC neuronal activity) (cpB and cpC neurons): beta activators |
| CC/C=C/CC(=O)OC [OLI0100, methyl (E)-hex-3-enoate] | – | – | – | – | – | 17% | 100% | 0% | 0% | 0% | – | Comp B Class (cpA neurons [1]): Beta; Class (beta activator, individual component) (cpB and cpC neurons; [6]): Beta; Class A (beta activator, individual component) (cpB and cpC neurons): Beta; Class (beta activator, individual component) (cpB and cpC neurons; [7]): Beta; beta activator (stimulates cpB and cpC neuronal activity) (cpB and cpC neurons): beta activators |
| C=CCc1ccc(O)c(OC)c1 [OLI0102, Eugenol] | – | – | – | – | – | 100% | 100% | 25% | 0% | 100% | – | ability to repel bed bugs ([3]; 100 microliters solution on filter paper tent, 5 minutes): surprisingly strong ability to repel bed bugs; Class (inhibitor class of the individual component) (cpA neurons [5]; [6]): Mild; Class (inhibitor class of the individual component) (cpA neurons [5]; [7]): Mild |
| COC(/C=C/c1ccccc1)OC [OLI0106, cinnamic aldehyde dimethyl acetal] | – | 0% | 100% | 100% lethal | 10% lethal | 90% | – | – | – | – | – | – |
| CC1=C2CCC(C)CC2OC1=O (stereo not drawn) [OLI0111, Menthalactone] | – | 0% | 100% | 100% lethal | 33% lethal | 13% | – | – | – | – | – | – |
| furfurylpentenoate [OLI0088] | – | – | – | – | – | – | – | – | – | – | Mild Inhibitor (mild inhibitors (reducing activity by 20-40%)) | Class (inhibitor class of the individual component) (cpA neurons [5]; [7]): Mod; Class (beta activator, individual component) (cpB and cpC neurons; [7]): Beta |
| methoxy cinnamic aldehyde [OLI0112] | – | 0% | 100% | 100% lethal | 0% lethal | 23% | – | – | – | – | – | – |

Reference: patent US20150216182A1, “COMPOSITIONS AND METHODS OF THE ATTRACTION AND REPULSION OF INSECTS” (Olfactor Laboratories, Inc., priority 2012, published 2015)
